From patent publication US20080293587A1, “Method of Screening a Biological Target for Weak Interactions Using Weak Affinity Chromatography” (Transientic Interactions AB, priority 2005, published 2008) come the findings set out here.

SMILES strings stand for the structures.

The test has as its target bovine serum albumin (BSA) (Bos taurus, UniProt P02769). The conditions noted are these: bupivacain 1 mM; for retardation in zonal weak affinity chromatography in a well (peak apex): immobilized BSA, mobile phase 0.05 M sodium phosphate buffer pH 7.0, 20° C., UV 230 nm, propranolol 0.25 mM, sodium azide 0.5 mM.

bovine serum albumin (BSA), sequence (P02769 25-607): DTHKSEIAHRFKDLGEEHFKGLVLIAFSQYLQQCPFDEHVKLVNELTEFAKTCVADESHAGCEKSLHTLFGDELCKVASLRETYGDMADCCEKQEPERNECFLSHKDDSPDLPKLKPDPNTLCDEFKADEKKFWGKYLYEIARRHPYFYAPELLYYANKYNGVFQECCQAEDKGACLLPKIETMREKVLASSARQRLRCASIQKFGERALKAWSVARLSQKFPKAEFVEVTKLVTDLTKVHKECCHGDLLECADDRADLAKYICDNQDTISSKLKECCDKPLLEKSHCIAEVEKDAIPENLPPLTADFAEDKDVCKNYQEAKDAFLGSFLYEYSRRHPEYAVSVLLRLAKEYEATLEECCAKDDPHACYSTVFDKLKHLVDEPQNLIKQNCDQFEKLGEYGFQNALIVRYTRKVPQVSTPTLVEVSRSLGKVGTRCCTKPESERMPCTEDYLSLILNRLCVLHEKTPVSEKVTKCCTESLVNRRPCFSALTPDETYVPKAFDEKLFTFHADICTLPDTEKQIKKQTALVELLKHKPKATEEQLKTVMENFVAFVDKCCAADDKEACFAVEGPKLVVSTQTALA
Experimental: 200 mg of reference gel (diol-silica) and assay gel (BSA-diol-silica) were suspended in 1 ml methanol and packed into each well in a 96-well filtering system (Captiva® 96-well 10μ glassfiber filter plate from Ansys Technologies (Company), see FIG. 1) using vacuum applied to the wells. The gel in the wells was first washed with 5 ml MeOH and then with 5 ml 0.1 M sodium phosphate buffer pH 7.0. Filter discs were placed on top of the gel material in each well.
Wells containing gel materials were washed carefully with 0.05 M sodium phosphate buffer pH 7.0 using vacuum collar to remove non-bound BSA, contaminants and entrapped air. The excess of buffer was gently removed from the surface of the wells using pipette and 10 μl of test substances were injected centrally in each wells which were then flushed with mobile phase (0.05 M sodium phosphate buffer pH 7.0). Vacuum was applied to the collar and the mobile phase was flowed into a 96 well collection plate (Nunclon, Nalgene-Nunc) within 8-10 seconds. Vacuum was then reduced and the collection plate (approximately 0.2 ml in each well) was replaced with a new one. This fraction collection process was repeated with 20-75 plates. During this procedure the wells were eluted with mobile phase continuously. […] The eluates in the plates were transferred carefully by automatic pipettes and weighed to estimate the retention volume. All procedures were performed at room temperature (20° C.). Eluted substances were detected by UV-scans at 230 nm. Chromatograms were obtained by plotting UV absorbance versus fraction volume.

Turning to `CCCCN1CCCCC1C(=O)Nc1c(C)cccc1C` (stereo not drawn) [Bupivacain], the “retardation in zonal weak affinity chromatography in a well (peak apex)” value is on record as “retarded”. Moreover, for the setting “three different wells, chromatography repeated once in each well”, the “well-to-well reproducibility of retardation in zonal weak affinity chromatography” value is given as “retarded”.

Take `CC(C)NCC(O)COc1cccc2ccccc12` (stereo not drawn) [propranolol]: the “retardation in zonal weak affinity chromatography in a well (peak apex)” value is reported as “retarded”.
